Assays:
[1] = Kinetic Turbidimetric Aqueous Solubility at room temperature for 5 min; type: physicochemical; conditions: PBS buffer, kinetic from dmso stock, 2% DMSO
Experimental: Kinetic Turbidimetric Aqueous Solubility at room temperature for 5 min. Test compound was diluted in PBS buffer to give a range of concentrations (typically 0.4, 2, 4, 20, 40, 100, and 200 μM, final DMSO concentration 2%) and incubated at room temperature for 5 min. Absorbance was measured at a wavelength of 620 nm and the solubility was estimated from the concentration of test compound that produces an increase in absorbance above the vehicle control (i.e., […]). Data was analyzed by fitting a four parameter sigmoidal function to the measured and normalized absorbances and AUC calculation providing access to Log S (decadic logarithm of the solubility).

[2] = test system: P. aeruginosa pyocyanin production; test: Pyocyanin assay; type: cell-based, P. aeruginosa PA14; conditions: Pseudomonas aeruginosa, PA14, 16 h, read-out: IC50-value towards pyocyanin production, PA14 in PPGAS medium, 16 h
In short: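 PA14 in PPGAS medium from OD600 0.02 grown 16 h at 37 °C, 200 rpm, with compounds. Pyocyanin extracted with chloroform, back-extracted into 0.2 M HCl, OD520 normalised to OD600.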

[3] = Metabolic stability in mouse liver microsomes (MLM); type: in vitro ADME; conditions: 1 μM compound, 0.5 mg/mL MLM, 1 mM NADPH, 37° C., read-out: half-life (t1/2) towards MLM
Experimental: For the evaluation of phase I metabolic stability, the compound (1 μM) was incubated with 0.5 mg/mL MLM (Corning) and 1 mM NADPH at 37° C. for 0, 5, 10, 15 and 30 min. The metabolic stability of Verapamil, Diphenhydramine and Benzydamine (1 μM each) were determined in parallel to confirm the enzymatic activity of the MLM. The incubation was stopped by addition of 2 volumes of acetonitrile containing internal standard (1 μM Leucine Enkephaline). Samples were centrifuged (15 min, 3,500 rpm). Concentration of the remaining test compound at the different time points was analyzed by HPLC-MS/MS and used to determine half-life (t1/2).

PqsR = PqsR (Pseudomonas aeruginosa, UniProt Q9I4X0); test: E. coli based β-galactosidase reporter gene assay (PqsR inverse agonistic activity); type: cell-based; parameters: expressed in transfected cells; host or cells: Escherichia coli DH5α
In short: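 E. coli DH5α carrying pEAL08-2 (tac-driven pqsR with pqsA-lacZ) was grown to OD600 0.2 and incubated with 0.001–10 μM compound plus 50 nM PQS for 2.5 h at 37 °C. β-Galactosidase activity was measured by ONPG conversion in permeabilized cells and normalized between the no-PQS and solvent controls. IC50 came from concentration variation.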

[4] = Metabolic stability against human hepatic S9 fraction; type: in vitro ADME; conditions: pooled human liver S9 fraction; 1 μM compound, 1 mg/mL pooled human liver S9, phase I and II cofactors, 37° C.; read-out: half-life (t1/2) towards human hepatic S9 fraction
Experimental: For the evaluation of combined phase I and phase II metabolic stability, the compound (1 μM) was incubated with 1 mg/mL pooled human liver S9 fraction (BD Gentest), 2 mM NADPH regenerating system, 1 mM UDPGA, 10 mM MgCl2 and 0.1 mM PAPS at 37° C. for 0, 5, 15, 30 and 60 min. The metabolic stability of Testosterone (1 μM) and 7-hydroxycoumarin (1 μM) were determined in parallel to confirm the enzymatic activity of the S9 fraction. The incubation was stopped by precipitation of S9 enzymes with 2 volumes of cold acetonitrile containing internal standard (750 nM Diphenhydramine). Samples were stored on ice for 10 min and precipitated protein was removed by centrifugation (10 min, 4° C., 17,000 g). Concentration of the remaining test compound at the different time points was analyzed by LC-MS/MS (TSQ Quantum Access MAX, Thermo Fisher, Dreieich, Germany) and used to determine half-life (t/2).

Sequence of PqsR (Q9I4X0 whole entry): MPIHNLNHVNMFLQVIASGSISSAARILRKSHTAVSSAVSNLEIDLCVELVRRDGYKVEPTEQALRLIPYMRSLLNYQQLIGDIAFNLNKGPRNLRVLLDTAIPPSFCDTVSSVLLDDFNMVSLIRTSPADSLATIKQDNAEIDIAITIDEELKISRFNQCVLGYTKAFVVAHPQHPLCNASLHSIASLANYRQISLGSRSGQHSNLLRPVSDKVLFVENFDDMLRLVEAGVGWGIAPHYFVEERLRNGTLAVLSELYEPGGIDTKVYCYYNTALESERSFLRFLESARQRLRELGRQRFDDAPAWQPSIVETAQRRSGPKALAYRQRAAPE

## FC(F)(F)c1cc(NCc2cn(-c3ccc(-n4ncc5ccncc54)c(Cl)c3)nn2)ccn1 [Compound 147]
[1]
  solubility at 5 min: > 50 µM
[2]
  IC50: 251 to 1000 nM
[3]
  half-life at 1 μM: 0.517 to 1 h
PqsR
  IC50: ≤ 50 nM

## O=C(c1ccccc1)c1ccc(-n2cc(CNc3ccnc(C(F)(F)F)c3)nn2)cc1 [Compound 004, Phenyl(4-(4-(((2-(trifluoromethyl)pyridin-4-yl)amino)methyl)-1H-1,2,3-triazol-1-yl)phenyl)methanone]
[1]
  solubility at 5 min: > 25 µM
[2]
  IC50: 1000 to 5000 nM
[3]
  half-life at 1 μM: > 1 h
PqsR
  IC50: ≤ 50 nM

## FC(F)(F)c1cc(NCc2csc(-c3ccc(C4CC4)cc3)n2)ccn1 [Compound 081, N-((2-(4-Cyclopropylphenyl)thiazol-4-yl)methyl)-2-(trifluoromethyl)pyridin-4-amine]
[2]
  IC50: ≤ 250 nM
[4]
  half-life at 1 μM: 0.683 to 1 h
PqsR
  IC50: ≤ 50 nM

## Fc1ccccc1Oc1ccc(-n2cc(CNc3ccnc(C(F)(F)F)c3)nn2)cc1 [Compound 144, N-((1-(4-(2-fluorophenoxy)phenyl)-1H-1,2,3-triazol-4-yl)methyl)-2-(trifluoromethyl)pyridin-4-amine]
[1]
  solubility at 5 min: > 25 µM
[2]
  IC50: ≤ 250 nM
[3]
  half-life at 1 μM: 0.517 to 1 h
PqsR
  IC50: ≤ 50 nM

## Oc1cc(NCc2cn(-c3ccc(Oc4ccccc4)cc3)nn2)cc(C(F)(F)F)n1 [Compound 050, 4-(((1-(4-Phenoxyphenyl)-1H-1,2,3-triazol-4-yl)methyl)amino)-6-(trifluoromethyl)pyridin-2-ol]
[1]
  solubility at 5 min: ≥ 100 µM
[2]
  IC50: 1000 to 5000 nM
[3]
  half-life at 1 μM: > 1 h
PqsR
  IC50: ≤ 50 nM

## FC(F)(F)c1cc(NCc2cn(-c3ccc(-n4ccc5ccccc54)cc3)nn2)ccn1 [Compound 040, N-((1-(4-(1H-Indol-1-yl)phenyl)-1H-1,2,3-triazol-4-yl)methyl)-2-(trifluoromethyl)pyridin-4-amine]
[1]
  solubility at 5 min: > 25 µM
[2]
  IC50: 251 to 1000 nM
[3]
  half-life at 1 μM: 0.517 to 1 h
PqsR
  IC50: 51 to 250 nM

## FC(F)(F)c1cc(SCc2cnc(-c3ccc(Oc4ccccc4)cc3)s2)ccn1 [Compound 066, 2-(4-Phenoxyphenyl)-5-(((2-(trifluoromethyl)pyridin-4-yl)thio)methyl)thiazole]
[2]
  IC50: 1000 to 5000 nM
[4]
  half-life at 1 μM: > 1 h
PqsR
  IC50: 51 to 250 nM

## FC(F)(F)c1cc(NCc2cn(-c3ccc(-n4ncc5ccccc54)cc3)nn2)ccn1 [Compound 046, N-((1-(4-(1H-indazol-1-yl)phenyl)-1H-1,2,3-triazol-4-yl)methyl)-2-(trifluoromethyl)pyridin-4-amine]
[1]
  solubility at 5 min: > 25 µM
[2]
  IC50: 251 to 1000 nM
[3]
  half-life at 1 μM: 0.517 to 1 h
PqsR
  IC50: 51 to 250 nM

## CC(C)Oc1ccc(-c2nc(CNc3ccnc(C(F)(F)F)c3)cs2)cc1Cl [Compound 082, N-((2-(3-Chloro-4-isopropoxyphenyl)thiazol-4-yl)methyl)-2-(trifluoromethyl)pyridin-4-amine]
[2]
  IC50: ≤ 250 nM
[4]
  half-life at 1 μM: > 1 h
PqsR
  IC50: ≤ 50 nM

## FC(F)(F)c1cc(SCc2cn(-c3ccc(Oc4ccccc4)cc3)nn2)ccn1 [Compound 054, 4-(((1-(4-phenoxyphenyl)-1H-1,2,3-triazol-4-yl)methyl)thio)-2-(trifluoromethyl)pyridine]
[2]
  IC50: 251 to 1000 nM
[4]
  half-life at 1 μM: > 1 h
PqsR
  IC50: ≤ 50 nM

## FC(F)(F)c1cc(NCc2cn(-c3ccc(-n4cnc5ccccc54)cc3)nn2)ccn1 [Compound 045, N-((1-(4-(1H-benzo[d]imidazol-1-yl)phenyl)-1H-1,2,3-triazol-4-yl)methyl)-2-(trifluoromethyl)pyridin-4-amine]
[1]
  solubility at 5 min: > 25 µM
[2]
  IC50: 1000 to 5000 nM
[3]
  half-life at 1 μM: 0.517 to 1 h
PqsR
  IC50: 51 to 250 nM

## FC(F)(F)c1cc(NCc2cnc(-c3ccc(Cl)nc3)s2)ccn1 [Compound 073, N-((2-(6-Chloropyridin-3-yl)thiazol-5-yl)methyl)-2-(trifluoromethyl)pyridin-4-amine]
[1]
  solubility at 5 min: ≥ 100 µM
[2]
  IC50: 1000 to 5000 nM
[3]
  half-life at 1 μM: > 1 h
PqsR
  IC50: 51 to 250 nM

## FC(F)(F)c1cc(NCc2ccc(-c3ccc(Oc4ccccc4)nc3)cn2)ccn1 [Compound 100, N-((6′-Phenoxy-[3,3′-bipyridin]-6-yl)methyl)-2-(trifluoromethyl)pyridin-4-amine]
[1]
  solubility at 5 min: > 25 µM
[3]
  half-life at 1 μM: 0.517 to 1 h
PqsR
  IC50: 51 to 250 nM

## FC(F)(F)c1cc(NCc2nc3cc(Cl)c(Cl)cc3[nH]2)ccn1 [Compound 121, N-((5,6-Dichloro-1H-benzo[d]imidazol-2-yl)methyl)-2-(trifluoromethyl)pyridin-4-amine]
[1]
  solubility at 5 min: ≥ 100 µM
[3]
  half-life at 1 μM: 0.517 to 1 h
PqsR
  IC50: 251 to 1000 nM

## FC(F)(F)c1cc(NCc2cnc(-c3ccc(Oc4ccccc4)cc3)nc2)ccn1 [Compound 105, N-((2-(4-Phenoxyphenyl)pyrimidin-5-yl)methyl)-2-(trifluoromethyl)pyridin-4-amine]
[1]
  solubility at 5 min: > 10 µM
[2]
  IC50: 251 to 1000 nM
[3]
  half-life at 1 μM: 0.517 to 1 h
PqsR
  IC50: 51 to 250 nM

## Fc1ccc(Oc2ccc3[nH]c(CNc4ccnc(C(F)(F)F)c4)nc3c2)cc1 [Compound 172, N-((5-(4-fluorophenoxy)-1H-benzo[d]imidazol-2-yl)methyl)-2-(trifluoromethyl)pyridin-4-amine]
[1]
  solubility at 5 min: > 25 µM
[2]
  IC50: 251 to 1000 nM
[3]
  half-life at 1 μM: 0.517 to 1 h

## FC(F)(F)c1cc(NCc2ccc(-c3cnc(Cl)c(Cl)c3)cn2)ccn1 [Compound 102, N-((5′,6′-Dichloro-[3,3′-bipyridin]-6-yl)methyl)-2-(trifluoromethyl)pyridin-4-amine]
[1]
  solubility at 5 min: > 50 µM
[2]
  IC50: 251 to 1000 nM
[3]
  half-life at 1 μM: 0.517 to 1 h
PqsR
  IC50: 51 to 250 nM

## CC(C)Oc1ccc(-c2ncc(CNc3cc(C#N)nc(C(F)(F)F)c3)s2)cc1Cl [Compound 160, 4-(((2-(3-Chloro-4-isopropoxyphenyl)thiazol-5-yl)methyl)amino)-6-(trifluoromethyl)picolinonitrile]
[1]
  solubility at 5 min: > 10 µM
[2]
  IC50: ≤ 250 nM
[3]
  half-life at 1 μM: 0.517 to 1 h
PqsR
  IC50: ≤ 50 nM

## FC(F)(F)c1cc(SCc2ccc(-c3ccc(Oc4ccccc4)nc3)cn2)ccn1 [Compound 114, 6-Phenoxy-6′-(((2-(trifluoromethyl)pyridin-4-yl)thio)methyl)-3,3′-bipyridine]
[4]
  half-life at 1 μM: > 1 h
PqsR
  IC50: 51 to 250 nM

## CC(C)Oc1ccc(-c2ccc(CNc3ccnc(C(F)(F)F)c3)nc2)cc1Cl [Compound 165, N-((5-(3-chloro-4-isopropoxyphenyl)pyridin-2-yl)methyl)-2-(trifluoromethyl)pyridin-4-amine]
[1]
  solubility at 5 min: > 25 µM
[2]
  IC50: 251 to 1000 nM
[3]
  half-life at 1 μM: > 1 h
PqsR
  IC50: ≤ 50 nM

## CC(C)Oc1ncc(-c2ncc(CNc3ccnc(C(F)(F)F)c3)cn2)cc1Cl [Compound 164, N-((2-(5-chloro-6-isopropoxypyridin-3-yl)pyrimidin-5-yl)methyl)-2-(trifluoromethyl)pyridin-4-amine]
[1]
  solubility at 5 min: > 25 µM
[2]
  IC50: 251 to 1000 nM
[3]
  half-life at 1 μM: > 1 h
PqsR
  IC50: ≤ 50 nM

## CC(C)Oc1ccc(-c2ncc(CNc3ccnc(C(F)(F)F)c3)cn2)cc1 [Compound 106, N-((2-(4-isopropoxyphenyl)pyrimidin-5-yl)methyl)-2-(trifluoromethyl)pyridin-4-amine]
[1]
  solubility at 5 min: > 25 µM
[2]
  IC50: 251 to 1000 nM
[3]
  half-life at 1 μM: > 1 h
PqsR
  IC50: 51 to 250 nM

## Nc1cc(OCc2nc3cc(Oc4ccccc4)ccc3[nH]2)nc(C(F)(F)F)n1 [Compound 181, 6-((5-phenoxy-1H-benzo[d]imidazol-2-yl)methoxy)-2-(trifluoromethyl)pyrimidin-4-amine]
[1]
  solubility at 5 min: > 50 µM
[3]
  half-life at 1 μM: > 1 h
PqsR
  IC50: 51 to 250 nM

Reference: patent publication US11883387B2, “PqsR inverse agonists” (HELMHOLTZ-ZENTRUM FÜR INFEKTIONSFORSCHUNG GMBH, priority 2018, dated 2024)
